Data reported in patent publication EP0973746B1, “SUBSTITUTED 3-CYANO QUINOLINES” (Wyeth Holdings Corporation, priority 1997, dated 1998).
pIC50: −log10 of the molar value. Converted amounts (≈) assume the structure as drawn. Like-named read-outs stand apart in the source and are kept apart here.

Experiments:
[1] = system: HTB161; assay: Inhibition of cancer cell growth as measured by cell number, HTB161; assay type: cell-based; conditions: Homo sapiens, 48 h, read-out: IC50 HTB161
[2] = system: A27805; assay: Inhibition of cancer cell growth as measured by cell number, A27805; assay type: cell-based; conditions: Homo sapiens, 48 h, read-out: IC50 A27805
[3] = system: A2780DDP; assay: Inhibition of cancer cell growth as measured by cell number, A2780DDP; assay type: cell-based; conditions: Homo sapiens, 48 h, read-out: IC50 A2780DDP
[4] = system: MIP; assay: Inhibition of cancer cell growth as measured by cell number, MIP; assay type: cell-based; conditions: Homo sapiens; cell number, Sulforhodamine B, 48 hours exposure; Table 4; read-out: IC50 MIP
[5] = system: SW620; assay: Inhibition of cancer cell growth as measured by cell number, SW620; assay type: cell-based, human; conditions: Homo sapiens, SW-620, 48 h;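 note: SW620 was included as a cell line with little or no EGFR or HER2/neu expression, in contrast to receptor-overexpressing lines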
Source text: (§1) The cell lines were chosen since they overexpressed epidermal growth factor receptor (EGFR) (i.e. A431) or HER2/neu (SKBR3), or had little to no expression of the these receptors (SW620, LOX, MCF7).

[6] = system: COLO205; assay: Inhibition of cancer cell growth as measured by cell number, COLO205; assay type: cell-based; conditions: Homo sapiens, COLO 205, 48 h, read-out: IC50 COLO205
[7] = system: CX1; assay: Inhibition of cancer cell growth as measured by cell number, CX1; assay type: cell-based; conditions: Homo sapiens, CX-1, 48 h, read-out: IC50 CX1
[8] = system: CACO2; assay: Inhibition of cancer cell growth as measured by cell number, CACO2; assay type: cell-based; conditions: Homo sapiens, Caco-2, 48 h, read-out: IC50 CACO2
[9] = system: HCT15; assay: Inhibition of cancer cell growth as measured by cell number, HCT15; assay type: cell-based; conditions: Homo sapiens, HCT-15, 48 h, read-out: IC50 HCT15
[10] = system: LS174T; assay: Inhibition of cancer cell growth as measured by cell number, LS174T; assay type: cell-based; conditions: Homo sapiens, 48 h, read-out: IC50 LS174T
[11] = system: SW948; assay: Inhibition of cancer cell growth as measured by cell number, SW948; assay type: cell-based; conditions: Homo sapiens, SW948, 48 h, read-out: IC50 SW948
[12] = system: CCL228; assay: Inhibition of cancer cell growth as measured by cell number, CCL228; assay type: cell-based; conditions: Homo sapiens, 48 h, read-out: IC50 CCL228
[13] = system: MCF7; assay: Inhibition of cancer cell growth as measured by cell number, MCF7; assay type: cell-based, human; conditions: Homo sapiens, MCF7, 48 h, read-out: IC50 MCF7, cell number, Sulforhodamine B, 48 hours exposure; Table 5;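 note: MCF7 was included as a line with little or no EGFR or HER2/neu expression, in contrast to the receptor-overexpressing lines of the panel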
Source text: as §1

[14] = system: B7474; assay: Inhibition of cancer cell growth as measured by cell number, B7474; assay type: cell-based; conditions: Homo sapiens, 48 h, read-out: IC50 B7474
[15] = system: T47D; assay: Inhibition of cancer cell growth as measured by cell number, T47D; assay type: cell-based; conditions: Homo sapiens, 48 h, read-out: IC50 T47D
[16] = system: LX1; assay: Inhibition of cancer cell growth as measured by cell number, LX1; assay type: cell-based; conditions: Homo sapiens, LX-1, 48 h, read-out: IC50 LX1
[17] = system: A549; assay: Inhibition of cancer cell growth as measured by cell number, A549; assay type: cell-based; conditions: Homo sapiens, A549, 48 h, read-out: IC50 A549
[18] = system: LOX; assay: Inhibition of cancer cell growth as measured by cell number, LOX; assay type: cell-based, human; conditions: Homo sapiens, LOX, 48 h, read-out: IC50 LOX, cell number, Sulforhodamine B, 48 hours exposure; Table 6;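 note: LOX cells served as a line with low or absent EGFR and HER2/neu expression, in contrast to receptor-overexpressing lines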
Source text: as §1

[19] = system: A431; assay: Inhibition of cancer cell growth as measured by cell number, A431; assay type: cell-based, human; conditions: Homo sapiens, A-431, 48 h, read-out: IC50 A431, cell number, Sulforhodamine B, 48 hours exposure; Table 6;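 note: human A431 line, picked because it overexpresses epidermal growth factor receptor (EGFR)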
Source text: as §1

[20] = system: NEC; assay: Inhibition of cancer cell growth as measured by cell number, NEC; assay type: cell-based; conditions: Homo sapiens, 48 h, read-out: IC50 NEC
[21] = system: DU145; assay: Inhibition of cancer cell growth as measured by cell number, DU145; assay type: cell-based; conditions: Homo sapiens, DU-145, 48 h, read-out: IC50 DU145
[22] = system: PC3; assay: Inhibition of cancer cell growth as measured by cell number, PC3; assay type: cell-based; conditions: Homo sapiens, PC-3, 48 h, read-out: IC50 PC3
[23] = system: LNCAP; assay: Inhibition of cancer cell growth as measured by cell number, LNCAP; assay type: cell-based; conditions: Homo sapiens, 48 h, read-out: IC50 LNCAP
[24] = system: HL60; assay: Inhibition of cancer cell growth as measured by cell number, HL60; assay type: cell-based; conditions: Homo sapiens, HL-60, 48 h, read-out: IC50 HL60
[25] = system: CCRF-CFM; assay: Inhibition of cancer cell growth as measured by cell number, CCRF-CFM; assay type: cell-based; conditions: Homo sapiens, 48 h, read-out: IC50 CCRF-CFM
[26] = system: SKBR3; assay: Inhibition of cancer cell growth as measured by cell number, SKBR3; assay type: cell-based, human; conditions: Homo sapiens, SK-BR-3, 48 h, read-out: IC50 SKBR3, cell number, Sulforhodamine B, 48 hours exposure; Table 7;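 note: SK-BR-3 cells were selected as a line overexpressing HER2/neu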
Source text: as §1

[27] = molecular target: recombinant human MEK 1 (MAPKK) and recombinant human ERK2 (MAPK); assay: Mitogen Activated Protein Kinase (MAPK) assay, two component coupled MEK 1 / ERK2; assay type: biochemical; conditions: separate entries for the same compound = evaluated more than one time;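 note: MEK 1-activated ERK2 phosphorylates MBP or Myc peptide with 33P-ATP, filter capture and scintillation counting, inhibitor preincubated with ERK2 30 min at 0 °C, inhibition relative to uninhibited control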
[28] = molecular target: T1, Kinase insert Domain containing Receptor (KDR: the catalytic domain of the VEGF receptor) (Homo sapiens, UniProt P35968); assay: Inhibition of Kinase insert Domain containing Receptor (KDR); assay type: biochemical; conditions: pH 7.2; radioactive format; read-out: KDR IC50 (converted);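 note: KDR phosphorylating a Glu:Tyr 4:1 copolymer with P32- or P33-labelled ATP, Mg++ and vanadate, read as acid-insoluble radiolabel, compared with compound-free reaction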
T1 construct: KDR: the catalytic domain of the VEGF receptor
Procedure: In this standard pharmacological test procedure, KDR protein is mixed, in the presence or absence of a inhibitor compound, with a substrate peptide to be phosphorylated (a copolymer of glutamic acid and tyrosine, E:Y :: 4:1) and other cofactors such as Mg^++ and sodium vanadate (a protein tyrosine phosphatase inhibitor) in an appropriate buffer to maintain pH (7.2). ATP and a radioactive tracer (either P^32-or P^33- labeled ATP) is then add to initiate phosphorylation. After incubation, the radioactive phosphate associated with the acid-insoluble fraction of the assay mixture is then quantified as reflection of substrate phosphorylation.

[29] = molecular target: Epithelial Cell Kinase (ECK) (Homo sapiens, UniProt P29317); assay: biochemical
Procedure: In this standard pharmacological test procedure, a biotinylated peptide substrate is first immobilized on neutravidin-coated microtiter plates. The test drug, the Epithelial Cell Kinase (ECK), Mg^++, sodium vanadate (a protein tyrosine phosphatase inhibitor), and an appropriate buffer to maintain pH (7.2) are then added to the immobilized substrate-containing microtiter wells. ATP is then added to initiate phosphorylation. After incubation, the assay plates are washed with a suitable buffer leaving behind phosphorylated peptide which is exposed to horse radish peroxidase (HRP)-conjugated anti-phosphotyrosine monoclonal antibody. The antibody-treated plates are washed again and the HRP activity in individual wells is quantified as a reflection of degree of substrate phosphorylation.

[30] = system: A431; assay: Inhibition of cell growth by incorporation of [3H]-thymidine, A431; assay type: cell-based, human; conditions: Homo sapiens, A-431; [3H]-thymidine incorporation; A431; read-out: IC50 A431
[31] = read-out: IC50 SW620, cell number, Sulforhodamine B, 48 hours exposure, Table 4

Chain of Epithelial Cell Kinase (ECK) (P29317 24-976, species assumed): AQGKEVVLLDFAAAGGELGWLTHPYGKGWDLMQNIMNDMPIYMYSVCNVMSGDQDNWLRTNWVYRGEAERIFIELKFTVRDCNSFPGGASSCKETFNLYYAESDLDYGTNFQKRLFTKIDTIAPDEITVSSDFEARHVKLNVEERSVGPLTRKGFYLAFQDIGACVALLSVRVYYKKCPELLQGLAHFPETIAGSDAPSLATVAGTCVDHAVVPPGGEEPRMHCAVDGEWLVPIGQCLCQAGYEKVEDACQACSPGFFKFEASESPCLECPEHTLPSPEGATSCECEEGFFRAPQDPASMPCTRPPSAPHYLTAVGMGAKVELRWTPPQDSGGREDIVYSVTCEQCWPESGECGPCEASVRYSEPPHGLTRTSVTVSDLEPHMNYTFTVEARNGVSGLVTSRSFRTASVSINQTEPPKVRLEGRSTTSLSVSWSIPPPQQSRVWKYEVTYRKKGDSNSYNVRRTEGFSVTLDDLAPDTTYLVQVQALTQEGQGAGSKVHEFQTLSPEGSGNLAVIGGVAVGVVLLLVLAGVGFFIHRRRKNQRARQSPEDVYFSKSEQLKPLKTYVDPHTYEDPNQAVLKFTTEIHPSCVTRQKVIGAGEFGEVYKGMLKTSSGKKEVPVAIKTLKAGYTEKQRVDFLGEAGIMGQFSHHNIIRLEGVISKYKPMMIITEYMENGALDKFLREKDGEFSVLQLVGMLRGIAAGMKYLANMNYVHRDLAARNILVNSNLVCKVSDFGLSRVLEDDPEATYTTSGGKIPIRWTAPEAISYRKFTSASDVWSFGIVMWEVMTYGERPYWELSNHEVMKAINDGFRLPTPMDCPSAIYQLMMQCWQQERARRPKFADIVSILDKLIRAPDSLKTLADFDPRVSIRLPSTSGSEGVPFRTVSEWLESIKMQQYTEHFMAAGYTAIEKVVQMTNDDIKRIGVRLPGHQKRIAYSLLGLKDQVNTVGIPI
T1 sequence (P35968 834-1162 limits assumed): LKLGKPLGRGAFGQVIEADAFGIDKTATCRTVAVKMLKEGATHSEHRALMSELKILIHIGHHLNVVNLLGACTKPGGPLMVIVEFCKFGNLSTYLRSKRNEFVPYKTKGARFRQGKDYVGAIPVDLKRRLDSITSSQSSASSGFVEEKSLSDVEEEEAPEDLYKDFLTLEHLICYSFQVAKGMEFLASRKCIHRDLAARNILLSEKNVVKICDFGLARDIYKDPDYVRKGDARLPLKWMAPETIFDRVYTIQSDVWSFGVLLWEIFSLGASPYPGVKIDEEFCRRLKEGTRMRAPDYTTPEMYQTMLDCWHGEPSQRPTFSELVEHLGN

Structure (SMILES)	IC50 [1] [µg/mL]	IC50 [2] [µg/mL]	IC50 [3] [µg/mL]	IC50 [4] [µg/mL]	IC50 [5, 31] [µg/mL]	IC50 [6] [µg/mL]	IC50 [7] [µg/mL]	IC50 [8] [µg/mL]	IC50 [9] [µg/mL]	IC50 [10] [µg/mL]	IC50 [11] [µg/mL]	IC50 [12] [µg/mL]	IC50 [13] [µg/mL]	IC50 [14] [µg/mL]	IC50 [15] [µg/mL]	IC50 [16] [µg/mL]	IC50 [17] [µg/mL]	IC50 [18] [µg/mL]	IC50 [19] [µg/mL]	pIC50 [27]	further results
COc1cc2ncc(C#N)c(Nc3cccc(Br)c3)c2cc1[N+](=O)[O-] [Example 6]	1.66 (≈ 4.15 µM)	2.49 (≈ 6.23 µM)	3.22 (≈ 8.06 µM)	0.95 (≈ 2.38 µM)	4.71 (≈ 11.8 µM)	5.51 (≈ 13.8 µM)	3.02 (≈ 7.58 µM)	0.808 (≈ 2.02 µM)	1.75 (≈ 4.38 µM)	2.67 (≈ 6.7 µM)	5.2 (≈ 13 µM)	2.35 (≈ 5.88 µM)	4.27 (≈ 10.7 µM)	3.76 (≈ 9.41 µM)	3.26 (≈ 8.18 µM)	5.55 (≈ 13.9 µM)	4.45 (≈ 11.1 µM)	0.813 (≈ 2.04 µM)	0.845 (≈ 2.12 µM)	< 4.00	IC50 [20]: 4.17 µg/mL (≈ 10.4 µM); IC50 [21]: 1.03 µg/mL (≈ 2.59 µM); IC50 [22]: 4.69 µg/mL (≈ 11.7 µM); IC50 [23]: 4.19 µg/mL (≈ 10.5 µM); IC50 [24]: 0.947 µg/mL (≈ 2.37 µM); IC50 [25]: 2.57 µg/mL (≈ 6.44 µM); IC50 [26]: 4.2 µg/mL (≈ 10.5 µM)
C=CC(=O)Nc1cc2c(Nc3cccc(Br)c3)c(C#N)cnc2cc1OC [Example 9, N-[4-[(3-Bromophenyl)amino]-3-cyano-7-methoxy-6-quinolinyl]-2-propenamide]	0.341 (≈ 0.806 µM)	0.542 (≈ 1.28 µM)	0.513 (≈ 1.21 µM)	0.731 (≈ 1.73 µM)	1.94 (≈ 4.58 µM)	2.56 (≈ 6.06 µM)	0.91 (≈ 2.15 µM)	0.341 (≈ 0.805 µM)	0.984 (≈ 2.33 µM)	0.712 (≈ 1.68 µM)	3.3 (≈ 7.8 µM)	0.707 (≈ 1.67 µM)	3.25 (≈ 7.69 µM)	0.443 (≈ 1.05 µM)	0.838 (≈ 1.98 µM)	0.0672 (≈ 0.159 µM)	2.92 (≈ 6.89 µM)	0.438 (≈ 1.04 µM)	0.433 (≈ 1.02 µM)	< 4.00	IC50 [20]: 0.952 µg/mL (≈ 2.25 µM); IC50 [21]: 0.388 µg/mL (≈ 0.916 µM); IC50 [22]: 1.66 µg/mL (≈ 3.92 µM); IC50 [23]: 0.661 µg/mL (≈ 1.56 µM); IC50 [24]: 0.758 µg/mL (≈ 1.79 µM); IC50 [25]: 0.551 µg/mL (≈ 1.3 µM); IC50 [26]: 0.862 µg/mL (≈ 2.04 µM); IC50 [28]: > 70.9 µM
N#Cc1cnc2ccc([N+](=O)[O-])cc2c1Nc1cccc(C(F)(F)F)c1 [Example 23, 6-Nitro-4[(3-trifluoromethylphenyl)amino]-3-quinolinecarbonitrile]	–	–	–	–	–	> 100	–	–	–	–	> 100	–	–	–	–	–	–	–	–	< 4.00	IC50 ([5]; read-out: IC50 SW620): > 100 µg/mL; pIC50 [29]: 4.55
COc1cc2[nH]cc(C#N)c(=O)c2cc1OC [Example 33, 1,4-Dihydro-6,7-dimethoxy-4-oxo-3-quinolinecarbonitrile]	–	–	–	–	–	–	–	–	–	–	–	–	–	–	–	–	–	–	–	–	pIC50 [30]: 4.74
